Where two headings read alike, the source gives them in different places.
What was measured:
PLD2 = biological target: T1, PLD2 (Mus musculus, UniProt P97813); test: PLD2 activity in Pld1−/− MEFs; type: cell-based
T1 construct: endogenous in cells; host or cells: immortalized Pld1-/- mouse embryonic fibroblasts
Method: (§1) Cells were labeled with [H^3] myristic acid, and PLD activity was assessed by measuring the formation of [H^3] phosphatidylbutanol, which is the product of PLD-mediated transphosphatidylation, in the presence of 1-butanol, as previously described.
We further investigated the effect of A3373 on the enzymatic inhibition of PLD1 and PLD2 in Pld^+/+, Pld1^−/−, and Pld2^−/− MEFs. […] Kinase profiling was used to evaluate the general selectivity of the lead compounds. […] To further investigate whether inhibition of PLD1 by A3373 occurs by binding to PLD1, we first modified A3373 by adding biotinylation instead of the F present in its structure and measured PLD activity.

β-catenin/TCF-4 complex = test: Immunoprecipitation of β-catenin/TCF-4; type: cell-based; settings: 2 μM, 12 h, CRC cells
Method: As previously described, lysates from cells or colorectal cancer (CRC) tissues were analyzed by immunoprecipitation, and/or Western blotting was performed as described previously. The antibodies used are listed in Supplementary Table 5. A polyclonal anti-PLD antibody that recognizes both PLD1 and PLD2 was generated, as previously described. The use of human CRC tissue samples was approved by the Institutional Review Board of Pusan National University, Korea (PNU IRB/2011-6).

CRC cells [1] = test: Measurement of HMGB1 release (ELISA); type: cell-based
Method: (§2) For the quantitative determination of extracellular ATP, the cells were treated with Α3373. Extracellular release of ATP was assessed using the ENLITEN ATP Assay kit (Promega) according to the manufacturer’s instructions. For the HMGB1 level measurement, the supernatants of the cells were prepared by removing insoluble materials by centrifugation at 10,000 × g for 3 min at 4 °C. The levels of HMGB1 were measured using an HMGB1 detection kit (Chondrex) according to the manufacturer’s instructions.

HCT116 cells = test: Flow cytometry of do not eat-me signals and calreticulin; type: cell-based
[2] = Single oral dose toxicity in mice; settings: female and male mice
PLD = PLD activity assay in HCT 116 cells; type: cell-based; settings: at 10 μM (Fig. 1c)
Method: as §1

DLD1 cells [3] = test: Cell cycle analysis (BrdU/7-AAD flow cytometry), DLD1; type: cell-based
Method: (§3) For cell cycle analysis, the cells were treated with Α3373 or 5-FU. The cells were labeled with 10 μΜ bromodeoxyuridine (BrdU) for 2 h. Subsequently, the cells were stained with 7-aminoactinomycin D (7-AAD, Invitrogen) and a fluorescein isothiocyanate (FITC)-conjugated anti-BrdU antibody (Invitrogen). Apoptotic cells were detected using an Annexin V-FITC Apoptosis Detection Kit (BD Biosciences). The cells were analyzed using BD FACSAria III (BD Biosciences), and data analysis was performed using FlowJo v10.0 (BD Biosciences).

DLD1 cells [4] = test: Flow cytometry of CD44 and CD133; type: cell-based; settings: dose-dependent, mean fluorescence intensity
In vivo pharmacokinetics = test: In vivo pharmacokinetics; parameters: species or system mouse; AUCinf: unit not given here; settings: for half-life: read-out: t1/2 (terminal half-life) (converted)
Method: Supplementary Table 4. Plasma pharmacokinetics of A3373
The pharmacokinetic parameters were estimated with non-compartmental analysis using
PKSolver, based on the concentration- time profiles of A3373 in the plasma samples following
single IV (5 mg/kg) and PO (10 mg/kg) dose in mice (n=3). Abbreviations: T1 /2, elimination
half life; Tmax, time to peak concentration; AUC, area under the concentration–time curve;
MRT, mean residence ti me; Vz, the volume in the terminal state; CL, clearance; Vss, steady-
state volume of distribution; F, absolute bioavailability. […]
Male ICR mice (8 weeks old, 30~35 g) were accli mated to the testing facility in a temperature
and humidity controlled condition for approximately a week prior to the study. 1 mg/mL of
A3373 solution in dimethylacetamide/tween 80/saline (10/10/80 vol%) was dosed orally (10
mg/kg in a volume of 10 mL/kg) or by tail vein injection (5 mg/kg in a volume of 5 mL/kg) to
the animals. About 40 μL of blood samples were collected in BD Microtainer plasma s eparator
tubes at selected times through the saphenous vein over 24 hour s post-dosing. Blood samples
were centrifuged at 6,000 x g for 5 minutes to separat e plasma and stored in a freezer until
analyzed. Protein precipitation was conduct ed on 15 μL aliquot of plas ma samples with 3
volumes of acetonitrile containing glipizide as analytical internal standard. After centrifugation,
the supernatant was analyzed by Agilent 6460 QQQ LC-MS/MS system in a negative MRM
mode. Briefly, chromatography was performed on a Phenomenex Kinetex C18 column (2.1 ×
50 mm, 2.6 μm) with a linear gradient of the mobil e phases 10 mM aqu eous ammonium acetate
and acetonitrile. […]

CRC cells [5] = test: Measurement of extracellular ATP; type: cell-based
Method: as §2

DLD1 cells [6] = test: In vitro phagocytosis assay, DLD1 cells with THP1 macrophages; type: cell-based; settings: CFSE-labeled CRC cells cocultured with PMA-activated THP1 macrophages, vs vehicle
FHC cells = test: Cell cycle analysis (BrdU/7-AAD flow cytometry), FHC; type: cell-based; settings: FHC normal fetal colonic mucosa cells
Method: as §3

CRC cells [7] = test: Cell migration and invasion assay; type: cell-based
Method: For the cell migration assay, the cells were added to an 8 μm pore transwell polycarbonate chamber (SPL Life Science). After 24 h of incubation, the number of cells that migrated through the membrane into the lower chamber was counted. For the cell invasion assay, Matrigel (dilution at 1:5; BD Biosciences) was added to the Transwell chambers and incubated for 5 h. The cells were then seeded; after 24 h of incubation, the invaded cells on the bottom of the membrane were fixed with 10% formalin for 20 min and stained with 0.1% crystal violet for 3 h. The extent of invasion was expressed as the average number of cells per microscopic field.

hERG channel = hERG channel (Homo sapiens, UniProt Q12809); test: hERG ligand-binding assay; settings: HEK293 cells transfected with hERG
Method: Both hERG assays were conducted as described previously.

[8] = male, ICR, mouse, plasma, IV 5 mg/kg, mice
[9] = male, ICR, mouse, plasma, PO 10 mg/kg, mice

T1 sequence (P97813 whole entry): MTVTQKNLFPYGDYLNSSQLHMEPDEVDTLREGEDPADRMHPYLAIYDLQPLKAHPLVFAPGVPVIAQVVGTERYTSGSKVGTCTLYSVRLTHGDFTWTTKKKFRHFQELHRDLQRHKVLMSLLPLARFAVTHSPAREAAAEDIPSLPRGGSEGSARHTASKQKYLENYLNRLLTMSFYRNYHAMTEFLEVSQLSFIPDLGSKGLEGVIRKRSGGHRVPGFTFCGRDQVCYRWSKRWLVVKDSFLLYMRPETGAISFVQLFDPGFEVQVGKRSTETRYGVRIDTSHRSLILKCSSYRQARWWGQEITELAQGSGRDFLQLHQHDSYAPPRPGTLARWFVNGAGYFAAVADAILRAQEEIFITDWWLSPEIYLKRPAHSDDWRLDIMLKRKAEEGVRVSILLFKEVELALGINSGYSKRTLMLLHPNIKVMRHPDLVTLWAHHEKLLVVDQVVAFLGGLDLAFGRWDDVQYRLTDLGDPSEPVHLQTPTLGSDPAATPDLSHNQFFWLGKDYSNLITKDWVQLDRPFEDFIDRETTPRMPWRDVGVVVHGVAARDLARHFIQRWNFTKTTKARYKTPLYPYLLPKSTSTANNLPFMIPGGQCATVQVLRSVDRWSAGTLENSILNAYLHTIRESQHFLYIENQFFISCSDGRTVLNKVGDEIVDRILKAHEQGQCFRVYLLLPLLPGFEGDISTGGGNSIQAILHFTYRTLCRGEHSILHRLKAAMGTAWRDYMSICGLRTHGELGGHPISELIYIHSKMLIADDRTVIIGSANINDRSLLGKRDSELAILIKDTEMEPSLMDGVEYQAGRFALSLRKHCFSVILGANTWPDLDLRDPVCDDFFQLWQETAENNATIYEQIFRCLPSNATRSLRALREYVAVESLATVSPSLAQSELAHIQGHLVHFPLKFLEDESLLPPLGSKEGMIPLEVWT
Sequence of hERG channel (Q12809 whole entry): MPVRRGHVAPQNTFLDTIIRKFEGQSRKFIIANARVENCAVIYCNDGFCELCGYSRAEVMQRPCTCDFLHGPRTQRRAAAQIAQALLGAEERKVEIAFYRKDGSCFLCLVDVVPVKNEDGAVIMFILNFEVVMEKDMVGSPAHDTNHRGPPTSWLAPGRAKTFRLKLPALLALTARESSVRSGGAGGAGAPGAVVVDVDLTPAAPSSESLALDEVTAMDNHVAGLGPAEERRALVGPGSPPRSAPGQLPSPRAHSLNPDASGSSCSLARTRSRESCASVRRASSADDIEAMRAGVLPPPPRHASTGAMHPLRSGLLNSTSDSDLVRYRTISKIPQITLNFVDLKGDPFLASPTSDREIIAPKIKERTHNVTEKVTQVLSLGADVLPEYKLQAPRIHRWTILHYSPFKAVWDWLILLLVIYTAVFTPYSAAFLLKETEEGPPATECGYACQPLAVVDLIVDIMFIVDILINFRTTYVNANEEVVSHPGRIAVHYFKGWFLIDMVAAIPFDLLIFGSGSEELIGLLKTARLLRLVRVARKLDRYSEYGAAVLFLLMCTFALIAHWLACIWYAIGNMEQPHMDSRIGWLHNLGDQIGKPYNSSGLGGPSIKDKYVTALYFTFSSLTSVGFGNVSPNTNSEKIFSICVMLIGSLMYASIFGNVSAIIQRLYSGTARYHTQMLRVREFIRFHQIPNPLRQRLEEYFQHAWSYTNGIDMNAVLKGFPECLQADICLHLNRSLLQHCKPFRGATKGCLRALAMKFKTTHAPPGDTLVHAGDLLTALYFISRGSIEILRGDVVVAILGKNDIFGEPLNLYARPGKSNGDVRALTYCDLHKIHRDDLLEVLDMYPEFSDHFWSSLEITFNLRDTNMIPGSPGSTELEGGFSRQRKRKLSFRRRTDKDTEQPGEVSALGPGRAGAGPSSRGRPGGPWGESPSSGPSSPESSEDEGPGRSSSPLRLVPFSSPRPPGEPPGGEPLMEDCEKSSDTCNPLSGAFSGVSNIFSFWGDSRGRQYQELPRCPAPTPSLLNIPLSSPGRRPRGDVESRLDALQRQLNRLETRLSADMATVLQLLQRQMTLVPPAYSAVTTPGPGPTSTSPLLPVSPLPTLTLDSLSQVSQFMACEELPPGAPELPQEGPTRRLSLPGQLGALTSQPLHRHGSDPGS

Q: Which results are given for `O=C(Nc1cc(C(F)(F)F)cc(C(F)(F)F)c1)c1cc2cc(F)ccc2[nH]1` [Compound A3373]?
A: PLD2 activity, in words (PLD2; 2 μM, Pld−/− MEFs): not PLD2 activity; IC50 (PLD2; Pld1−/− MEFs): 15.1 µM; endogenous interaction between β-catenin and TCF-4 (β-catenin/TCF-4 complex): disrupted the endogenous interaction between β-catenin and TCF-4; release of HMGB1, in words (CRC cells [1]): increased the release of HMGB1 in a dose-dependent manner; cell-surface CRT expression, in words (HCT116 cells): increased cell-surface CRT expression; levels of do not eat-me signals, in words (HCT116 cells; CRC cells, flow cytometry): significantly reduced the levels of the “do not eat-me” signals; approximate lethal dose [2]: over 2000 mg/kg; PLD activity remained (PLD): 20.6%; cell cycle / proliferation of CRC cells, in words (DLD1 cells [3]): significantly decreased the proliferation of CRC cells; expression of CD44 and CD133 (DLD1 cells [4]): significantly decreased the expression of CD44 and CD133; t1/2 (terminal half-life) (In vivo pharmacokinetics; IV 5 mg/kg, mice, 5 mg/kg): 3.2 h; AUCinf (In vivo pharmacokinetics; PO 10 mg/kg, male ICR mice): 13,647.5 ± 1506.9; Tmax (In vivo pharmacokinetics; PO 10 mg/kg, male ICR mice): 0.5 h; Vd (In vivo pharmacokinetics; male, ICR, mouse, plasma, iv, 5 mg/kg, IV 5 mg/kg, mice, read-out: Vss (steady state volume)): 2.1 ± 0.1 L/kg; Vd (In vivo pharmacokinetics; male, ICR, mouse, plasma, iv, 5 mg/kg, IV 5 mg/kg, mice, read-out: Vz): 3.7 L/kg; half-life (In vivo pharmacokinetics; male, ICR, mouse, plasma, iv, 5 mg/kg, IV 5 mg/kg, mice): ~3.2 h; half-life (In vivo pharmacokinetics; male, ICR, mouse, plasma, po, 10 mg/kg, PO 10 mg/kg, mice): 3.8 h; AUC(0-inf) (In vivo pharmacokinetics; [8]): 6320 ng·h/mL; AUC(0-t) (In vivo pharmacokinetics; [8]): 6300 ng·h/mL; MRT (In vivo pharmacokinetics; [8]): 2.6 h; clearance (In vivo pharmacokinetics; male, ICR, mouse, plasma, IV 5 mg/kg, mice, read-out: CL (clearance) (converted)): 13.3 mL/min/kg; bioavailability (In vivo pharmacokinetics; male, ICR, mouse, plasma, PO 10 mg/kg vs IV 5 mg/kg, mice, read-out: F (oral bioavailability)): 108%; AUC(0-inf) (In vivo pharmacokinetics; [9]): 13600 ng·h/mL; AUC(0-t) (In vivo pharmacokinetics; [9]): 13500 ng·h/mL; MRT (In vivo pharmacokinetics; [9]): 5.6 h; Tmax (In vivo pharmacokinetics; male, ICR, mouse, plasma, PO 10 mg/kg, mice, read-out: tmax): 0.5 h; Cmax (In vivo pharmacokinetics; mouse, plasma, PO 10 mg/kg, male ICR mice): 2630 ± 183 ng/mL; extracellular ATP, in words (CRC cells [5]): significantly increased extracellular ATP; population of CD11b+CFSE+ macrophages, in words (DLD1 cells [6]): significantly increased the population of CD11b^+CFSE^+ macrophages; cell cycle / S phase in FHC cells, in words (FHC cells): had no effect on FHC cells; Wnt3a-induced migration and invasion (CRC cells [7]): significantly suppressed Wnt3a-induced migration and invasion; inhibition at 10 µM (hERG channel): 3.4%

Reference: article PMC9535023, “Inhibition of phospholipase D1 induces immunogenic cell death and potentiates cancer immunotherapy in colorectal cancer” (Experimental & Molecular Medicine, 2022)
